41 molecules from PubChem BioAssay AID504544 (Sanford-Burnham Center for Chemical Genomics, 2011) can be followed below.

Broadly, the IC50 is the concentration needed to halve the response being measured.

For the experiment, the system named is S. cerevisiae tim23-1 mutant growth, luminescence. In words: growth inhibition of tim23-1 mutant yeast, dose response, counter-screen for tim10-1 yeast inhibitor project, luminescence, uHTS hits (AID 504544). On the technique in general: Counterscreens check selectivity or assay interference.
On to `Cn1c(Cl)cnc1C1CC(=O)c2cc(Cl)ccc2O1` (stereo unspecified), for which the IC50 is 4.44 µM. Consider `Clc1ccccc1OCc1nnc(-c2ccccc2Br)o1`, for which the IC50 is 32.9 µM. For the molecule `N/C(=N\OC(=O)CCCc1ccccc1)c1ccccc1Cl`, the IC50 was 14 µM. As for `COc1cc(/C=C/c2ccc3cccc(O)c3n2)c(Br)cc1O`, the IC50 is 18.2 µM. Next, `CCOC(=O)/C=C/C(=O)OCC(=O)Nc1ccc([N+](=O)[O-])cc1`: 7.49 µM; `Cc1ccc(NC(=O)c2ccc(Cl)c(N3C(=O)C=CC3=O)c2)cc1`: 4.13 µM. Turning to `CC[C@@H]1CC=C[C@H]2[C@H]1C(=O)N(Cc1ccccc1)[C@H]2c1ccoc1`, the IC50 is 7.42 µM. For the molecule `CC(C)C(c1nnnn1C1CCCC1)N1CCCc2ccccc21` (stereo unspecified), the IC50 is 13.7 µM. With `Cc1onc(-c2ccc3c(c2)OCO3)c1-c1ccc2[nH]ccc2c1`, the IC50 was 10.7 µM. Regarding `O=c1c2ccccc2nc(/C=C/c2ccc([N+](=O)[O-])o2)n1CCCO`, the IC50 is 5.81 µM.

With `CC(C)c1nnc(NC(=O)CCS(=O)(=O)c2nc(-c3cccs3)cc(C(F)(F)F)n2)s1`, the IC50 was 8.43 µM. On to `O=C(/C=C\c1ccc(-c2ccccc2)o1)c1ccccc1`, for which the half-maximal inhibitory concentration (IC50) was 3.01 µM. Consider `N/C(=N\OC(=O)c1ccc(F)cc1)c1ccc(Br)cc1`, for which the IC50 was 3.14 µM. As for `O=C(NC(=S)Nc1ccccc1N1CCCC1)c1ccc([N+](=O)[O-])cc1`, the IC50 is 19.3 µM.

Take `CCCCCCC(=O)N(O)C1CC(=O)N(c2ccc(C)cc2)C1=O` (stereo unspecified): the IC50 is 6.88 µM.

Consider `Nc1c(C(=O)Nc2ccccc2)c2nc3ccccc3nc2n1CCCN1CCOCC1`, for which the IC50 is 12.5 µM. Next, `COc1ccc(C(=O)Nc2ccc(-n3nncc3C(C)(C)C)cc2)cc1`: 8.87 µM; `COc1ccc2sc(N(CCCN(C)C)C(=O)c3ccc(S(=O)(=O)N4CCCc5ccccc54)cc3)nc2c1`: 11.9 µM; `N/C(=N\OC(=O)CCC1CCCC1)c1cccc([N+](=O)[O-])c1`: 10.8 µM. Turning to `O=c1oc2ccccc2c(O)c1/C=C1\C=Nc2ccccc21`, the IC50 was 5.55 µM. Regarding `Cc1cccc(NC(=O)c2ccc([N+](=O)[O-])s2)n1`, the half-maximal inhibitory concentration (IC50) was 1.55 µM. For `Fc1ccc(CNC(=S)Nc2cccc(C(F)(F)F)c2)cc1`, the IC50 is 12.3 µM. Turning to `CC(=O)c1ccc(NC(=S)NC(C)c2ccc(Cl)cc2Cl)cc1` (stereo unspecified), the IC50 is 13.8 µM. Next, `COc1ccc2cc3cc(C(=O)NCCN4CCc5ccccc5C4)oc3nc2c1`: 3.34 µM; `CN(CCCC(=O)O)c1ccc(N=Nc2ccc([N+](=O)[O-])cc2)cc1`: 11.6 µM; `COC(=O)c1c(N2C(=O)CC(Sc3ccccc3C(=O)O)C2=O)sc2c1CCCC2` (stereo unspecified): 3.13 µM. Under `Cc1cc(C)cc(N2C(=O)CC(Sc3nnnn3-c3ccccc3)C2=O)c1` (stereo unspecified) stands 1.26 µM; under `Cc1ccc(NC(=S)Nc2ccc(Cl)c(Cl)c2)c(OC(F)F)c1`, 14.4 µM; under `COc1ccc(C(=O)O/N=C(\N)c2ccc(Cl)cc2)cc1`, 7.13 µM. As for `CCCCNC(=S)N=Nc1c(O)[nH]c2ccccc12`, the IC50 was 4.92 µM. Next, `O=C(NNC(=S)Nc1ccc(Cl)cc1)c1ccccc1OC(F)F`: 8.73 µM; `O=C(OCn1ncc(Br)c(Br)c1=O)c1ccc(F)cc1`: 1.78 µM. As to `CCCCNC(=S)Nc1ccc(C(F)(F)F)cc1`, the IC50 is 12 µM. Next, `Cc1ccc(CNC(=O)c2ccc(Cn3nc(C)c(Cl)c3C)o2)cc1`: 17.4 µM; `Cc1ccc(/C(N)=N/OC(=O)c2ccc3c(c2)OCO3)cc1`: 15.5 µM. On to `CC(C)Nc1nnc(Sc2ccc(Cl)cc2[N+](=O)[O-])s1`, for which the IC50 is 2.66 µM. As to `COc1ccccc1N1C(=O)CC(Sc2n[nH]c(-c3cccc(C)c3)n2)C1=O` (stereo unspecified), the IC50 is 7.77 µM. As to `O=C(N/N=C/c1ccc[nH]1)c1cc(-c2ccc(Cl)cc2)nc2ccccc12`, the IC50 is 8.98 µM.

With `COc1ccc(-n2cc(-c3ccccc3)c3c(=S)nc[nH]c32)cc1`, the IC50 was 38.4 µM. Next, `CCOC(=O)/C=C/C(=O)Nc1cccc([N+](=O)[O-])c1`: 2.61 µM. `O=C(Nc1cccnc1)c1cn(-c2ccccc2)nc1-c1cccs1`: the IC50 is 28.4 µM.
